The results in this text go back to patent publication US20250237010A1, “Selenium Containing Antimicrobial Compound as a Reacitve Dye and Cross-Linking Treatment for Textile Applications” (Texas Tech University System, priority 2021, published 2025).

Data set [1] relates to gram-negative and gram-positive bacteria. The data set is described as follows: Antimicrobial activity compared with industry requirements. The format is cell-based. The text has this: In one example, the invention is the chemical compound diseleniummonochlorotriazine. Triazines are commonly used in the textile chemistry to synthesis the reactive dye and apply to fabrics as they form covalent bonds with cellulose. Incorporating selenium creates a reactive dye with antimicrobial properties. This same base structure can be used to make diselenocyanuric chloride, diselenocyanuric bromide, diselenocyanuric fluoride, or diselenocyanuric iodine. […] In one example, the antimicrobial agent has the structure: […]

The test system of a further data set is Pseudomonas aeruginosa. The data set is described as follows: Bacterial killing (CFUs/sample) on cotton fabric treated with the organo-selenium compound, Gram-negative. The format is cell-based. The conditions noted are these: compound attached onto cotton fabric; e.g. Pseudomonas aeruginosa. The text has this:
(§1) FIGS. 1A and 1B are graphs that compares the colony forming units (CFUs) per sample of bacteria on a fabric, showing total bacterial killing with the organoselenium compound, and no killing without the organoselenium compound. In this example, the organoselenium compound was applied to the fabric as a reactive dye.
(§2) The technology modifies triazines, a commonly used reactive dye within the textile chemistry for application to impart colors to fabrics, by incorporation of selenium to create a reactive dye with antimicrobial characteristics. Since the cotton manufacturing/processing industry currently relies on annealing of triazine to create colored fabrics, the presented technology can be incorporated into this sector with minimal changes in the production environment. The created compound, diseleniummonochlorotriazine, was evaluated in the laboratory by attaching the Se-based compound onto cotton fabrics with the following results: (1) Diseleniummonochlorotriazine killed 100% of Gram-positive bacteria (e.g., Staphylococcus aureus) that attempted to bind to the cotton, and (2) Diseleniummonochlorotriazine killed 90% of Gram-negative bacteria. (e.g., Pseudomonas aeruginosa) that attempted to bind to the cotton.
(§3) Example 1. […] The application technique for the organo-selenium compound can be used by, e.g., the textile industry, on an industrial scale to produce an anti-microbial fabric. […]

The test system of a further data set is Staphylococcus aureus. The data set is described as follows: Bacterial killing (CFUs/sample) on cotton fabric treated with the organo-selenium compound, Gram-positive. The format is cell-based.
Excerpt: as §1, §2, §3

Data set [2] in a line: Binding to cotton and resistance to washing of the resulting fabric. The conditions noted are these: attached to cotton yarns as reactive dye. The format is physicochemical. The text has this:
Briefly, the inventors developed organo-selenium compounds that can be attached to cotton yarns and is suitable for applications as reactive dye.

Where two headings read alike, the source gives them in different places.

Turning to `OCC(O)C[Se][Se]CC(O)CO` (stereo not shown), the “antimicrobial activity level relative to industry expectations/requirements” value in data set [1] was “matches or exceed industrial requirements”.
Take `Clc1nc([SeH])nc([SeH])n1` [Diseleniummonochlorotriazine, diseleniummonochlorotriazine]: the “antimicrobial activity level relative to industry expectations/requirements” value in data set [1] was “matches industry expectations”; in data set [1] (listed as diseleniummonochlorotriazine) it was “matches or exceed industrial requirements”. The “killed % of Gram-negative bacteria that attempted to bind to the cotton” value in the data set with Pseudomonas aeruginosa worked out at 90%. The “killed % of Gram-positive bacteria that attempted to bind to the cotton” value in the data set with Staphylococcus aureus (compound attached onto cotton fabric, e.g. Staphylococcus aureus) is 100%.
Regarding diselenocyanuric chloride, in data set [2], the “binding to the cotton and resistance to washing” value is on record as “resistant to multiple washings”. Also, the “killing of Staphylococcus aureus on the fabric (CFUs per sample), in words” value in the data set on Staphylococcus aureus (treated cotton fabric, FIG. 1A, applied as reactive dye) is reported as “totally kill”.
